Measurements published in ChEMBL document CHEMBL5113483, “Design and synthesis of NAD(P)H: Quinone oxidoreductase (NQO1)-activated prodrugs of 23-hydroxybetulinic acid with enhanced antitumor properties” (Eur J Med Chem, 2022).

Experiments:
[1] = Selectivity index, ratio of IC50 for antiproliferative activity against NQO1-deficient human NCI-H596 cells to IC50 for antiproliferative activity against human HT-29 cells overexpressing NQO1; type: functional
[2] = Selectivity index, ratio of IC50 for antiproliferative activity against human HT-29 cells overexpressing NQO1 in presence of dicoumarol to antiproliferative activity against human HT-29 cells overexpressing NQO1; type: functional
[3] = system: NCI-H596; test: Antiproliferative activity against NQO1-deficient human NCI-H596 cells assessed as inhibition of cell growth incubated for 72 hrs by MTT assay; type: functional, cell-based; settings: NCI-H596, 72 h
[4] = system: HT-29; test: Antiproliferative activity against human HT-29 cells overexpressing NQO1 assessed as inhibition of cell growth preincubated with NQO1 inhibitor, dicoumarol for 30 mins followed by compound addition and measured after 72 hrs by MTT assay; type: functional, cell-based
[5] = Selectivity index, ratio of IC50 for cytotoxicity against human HFL1 cells to IC50 for antiproliferative activity against human HT-29 cells overexpressing NQO1; type: toxicity, cell-based; settings: HFL1 cells versus HT-29 cells overexpressing NQO1, read-out: Ratio IC50
[6] = system: HT-29; test: Antiproliferative activity against human HT-29 cells overexpressing NQO1 assessed as inhibition of cell growth incubated for 72 hrs by MTT assay; type: functional, cell-based; settings: HT-29, 72 h
[7] = system: A549; test: Antiproliferative activity against human A549 cells overexpressing NQO1 assessed as inhibition of cell growth incubated for 72 hrs by MTT assay; type: functional, cell-based; settings: A549, 72 h
[8] = Cytotoxicity against human HFL1 cells assessed as inhibition of cell growth incubated for 72 hrs by MTT assay; type: toxicity, cell-based
[9] = Toxicity in […] xenografted with human HT-29 cells overexpressing NQO-1 assessed as reduction in body weight at 30 mg/kg, ip administered for 21 days and measured every 2 days; type: organism-based; settings: in vivo, 504 h, time 21 day
[10] = system: HT-29; test: Antitumor activity against human HT-29 cells overexpressing NQO-1 xenografted in ICR mouse assessed as reduction in tumor weight at 30 mg/kg, ip administered every 2 days for 21 days and measured every 2 days relative to control; type: functional; design: scale not given: the % may be the effect or the level left
[11] = system: HT-29; test: Antitumor activity against human HT-29 cells overexpressing NQO-1 xenografted in ICR mouse assessed as reduction in tumor weight at 30 mg/kg, ip administered every day for 21 days and measured every 2 days relative to control; type: functional; design: scale not given: the % may be the effect or the level left; settings: time 21 day

| SMILES | Ratio IC50 [1] | Ratio IC50 [2] | IC50 [3] | IC50 [4] | selectivity ratio [5] | IC50 [6] | IC50 [7] | IC50 at 72 h [8] | Activity [9] | Activity [10] | Activity [11] |
| --- | --- | --- | --- | --- | --- | --- | --- | --- | --- | --- | --- |
| C=C(C)[C@@H]1CC[C@]2(C(=O)NCCNC(=O)CCC(=O)OCc3cn(C)c4c3C(=O)C(OC)=CC4=O)CC[C@]3(C)[C@H](CC[C@@H]4[C@@]5(C)CC[C@H](OC(C)=O)[C@@](C)(COC(C)=O)[C@@H]5CC[C@]43C)[C@@H]12 | 3.01 | 4.2 | 7.89 µM | 8.02 µM | 4.1 | 1.92 µM | 3.1 µM | 5.78 µM |  |  |  |
| C=C(C)[C@@H]1CC[C@]2(C(=O)O)CC[C@]3(C)[C@H](CC[C@@H]4[C@@]5(C)CC[C@H](OC(=O)CCCC(=O)OCc6cn(C)c7c6C(=O)C(OC)=CC7=O)[C@@](C)(COC(C)=O)[C@@H]5CC[C@]43C)[C@@H]12 | 1.36 |  | 4.58 µM |  | 1.27 | 3.58 µM | 4.03 µM | 4.09 µM |  |  |  |
| C=C(C)[C@@H]1CC[C@]2(C(=O)OCCOC(=O)CCC(=O)OCc3cn(C)c4c3C(=O)C(OC)=CC4=O)CC[C@]3(C)[C@H](CC[C@@H]4[C@@]5(C)CC[C@H](O)[C@@](C)(COC(=O)C6CCNCC6)[C@@H]5CC[C@]43C)[C@@H]12 | 1.59 |  | 7.34 µM |  | 1.7 | 4.3 µM | 5.41 µM | 6.83 µM |  |  |  |
| C=C(C)[C@@H]1CC[C@]2(C(=O)N3CCC(N4CCCCC4)CC3)CC[C@]3(C)[C@H](CC[C@@H]4[C@@]5(C)CC[C@H](O)[C@@](C)(COC(=O)CCC(=O)OCc6cn(C)c7c6C(=O)C(OC)=CC7=O)[C@@H]5CC[C@]43C)[C@@H]12 | 3.79 | 4.1 | 6.41 µM | 7.11 µM | 3.71 | 1.73 µM | 2.66 µM | 6.56 µM |  |  |  |
| C=C(C)[C@@H]1CC[C@]2(C(=O)O)CC[C@]3(C)[C@H](CC[C@@H]4[C@@]5(C)CC[C@H](OC(=O)CCC(=O)OCc6cn(C)c7c6C(=O)C(OC)=CC7=O)[C@@](C)(COC(C)=O)[C@@H]5CC[C@]43C)[C@@H]12 | 1.97 |  | 5.74 µM |  | 1.56 | 3.69 µM | 4.52 µM | 7.25 µM |  |  |  |
| C=C(C)[C@@H]1CC[C@]2(C(=O)OCCOC(=O)CCC(=O)OCc3cn(C)c4c3C(=O)C(OC)=CC4=O)CC[C@]3(C)[C@H](CC[C@@H]4[C@@]5(C)CC[C@H](OC(=O)CCC(=O)N6CCNCC6)[C@@](C)(COC(C)=O)[C@@H]5CC[C@]43C)[C@@H]12 | 2.12 |  | 6.39 µM |  | 1.99 | 3.29 µM | 5.45 µM | 6.79 µM |  |  |  |
| C=C(C)[C@@H]1CC[C@]2(C(=O)OCCOC(=O)CCC(=O)OCc3cn(C)c4c3C(=O)C(OC)=CC4=O)CC[C@]3(C)[C@H](CC[C@@H]4[C@@]5(C)CCC(=O)[C@@](C)(COC(C)=O)[C@@H]5CC[C@]43C)[C@@H]12 | 1.95 |  | 5.64 µM |  | 1.68 | 3.35 µM | 3.04 µM | 6.53 µM |  |  |  |
| C=C(C)[C@@H]1CC[C@]2(C(=O)N(CCCN(C)C)C(=O)NCC)CC[C@]3(C)[C@H](CC[C@@H]4[C@@]5(C)CC[C@H](O)[C@@](C)(COC(=O)CCC(=O)OCc6cn(C)c7c6C(=O)C(OC)=CC7=O)[C@@H]5CC[C@]43C)[C@@H]12 | 1.85 |  | 2.78 µM |  | 1.23 | 2.28 µM | 2.32 µM | 4.22 µM |  |  |  |
| C=C(C)[C@@H]1CC[C@]2(C(=O)O)CC[C@]3(C)[C@H](CC[C@@H]4[C@@]5(C)CC[C@H](O)[C@@](C)(COC(=O)CCCC(=O)OCc6cn(C)c7c6C(=O)C(OC)=CC7=O)[C@@H]5CC[C@]43C)[C@@H]12 | 1.69 |  | 4.71 µM |  | 2.46 | 1.92 µM | 2.52 µM | 3.23 µM |  |  |  |
| O=c1[nH]cc(F)c(=O)[nH]1 [FLUOROURACIL] |  |  |  |  |  |  |  |  | Toxic | 65.07% |  |
| COc1cccc2c1C(=O)c1c(O)c3c(c(O)c1C2=O)C[C@@](O)(C(=O)CO)C[C@@H]3O[C@H]1C[C@H](N)[C@H](O)[C@H](C)O1 [DOXORUBICIN] |  |  | 1.52 µM |  |  | 1.13 µM | 1.15 µM |  |  |  |  |
| C=C(C)[C@@H]1CC[C@]2(C(=O)O)CC[C@]3(C)[C@H](CC[C@@H]4[C@@]5(C)CC[C@H](O)[C@@](C)(CO)[C@@H]5CC[C@]43C)[C@@H]12 | 1.36 |  | 58.1 µM |  | 1.06 | 54.8 µM | 51.4 µM | 75 µM |  |  | 56.81% |
| C=C(C)[C@@H]1CC[C@]2(C(=O)OCCOC(=O)CCC(=O)OCc3cn(C)c4c3C(=O)C(OC)=CC4=O)CC[C@]3(C)[C@H](CC[C@@H]4[C@@]5(C)CC[C@H](NC(=O)CCC(=O)N6CCNCC6)[C@@](C)(COC(C)=O)[C@@H]5CC[C@]43C)[C@@H]12 | 1.96 |  | 6.44 µM |  | 1.77 | 3.63 µM | 5.17 µM | 7.11 µM |  |  |  |
